Experimental data as given in patent publication US8785460B2, “Tricyclic compounds and use thereof” (Takeda Pharmaceutical Company Limited, priority 2008, dated 2014).

Key:
human CRF1 receptor = target: T1, human CRF1 receptor (Homo sapiens, UniProt P34998); experiment: Measurement of CRF Binding Inhibitory Rate (receptor binding experiment with 125I-CRF); conditions: human CRF1 receptor expressing CHO cellular membrane fraction, 50 pM 125I-CRF, room temperature 1.5 hr, 0.05 nM to 10 μM of compound; read-out: IC50 values (CRF binding inhibition)
T1 construct: expressed in transfected cells; host or cells: CHO cells (membrane fraction)
T1 sequence (P34998 24-415): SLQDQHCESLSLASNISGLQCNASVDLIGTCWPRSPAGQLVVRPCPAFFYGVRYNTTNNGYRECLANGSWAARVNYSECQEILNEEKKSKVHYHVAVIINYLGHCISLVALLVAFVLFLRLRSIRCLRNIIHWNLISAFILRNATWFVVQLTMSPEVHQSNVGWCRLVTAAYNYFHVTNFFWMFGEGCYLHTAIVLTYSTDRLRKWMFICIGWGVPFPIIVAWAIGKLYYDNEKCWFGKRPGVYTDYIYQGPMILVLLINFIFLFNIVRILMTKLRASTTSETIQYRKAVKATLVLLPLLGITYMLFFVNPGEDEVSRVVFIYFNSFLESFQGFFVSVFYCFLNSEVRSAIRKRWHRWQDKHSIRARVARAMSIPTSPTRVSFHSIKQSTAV

Compound | melting point [°C] | IC50 (human CRF1 receptor) [µM]
CCC(CC)c1ccc(Cl)c2nc3n(c12)CCCCN3c1cnc(N2CCCC2)cc1C [Example 29, 10-Chloro-7-(1-ethylpropyl)-1-(4-methyl-6-pyrrolidin-1-ylpyridin-3-yl)-2,3,4,5-tetrahydro-1H-[1,3]diazepino[1,2-a]benzimidazole] | 160 to 161 | < 1
CCC(CC)c1ccc(Cl)c2nc3n(c12)CCCCN3c1ccc(OC)nc1OC [Example 28, 10-Chloro-1-(2,6-dimethoxypyridin-3-yl)-7-(1-ethylpropyl)-2,3,4,5-tetrahydro-1H-[1,3]diazepino[1,2-a]benzimidazole] | 85 to 88 | < 1
CCC(CC)c1ccc(Cl)c2nc3n(c12)CCCCN3c1ccc(N(C)C)cc1OC(F)(F)F [Example 53, 4-[10-Chloro-7-(1-ethylpropyl)-2,3,4,5-tetrahydro-1H-[1,3]diazepino[1,2-a]benzimidazol-1-yl]-N,N-dimethyl-3-(trifluoromethoxy)aniline] | 158 to 159 | < 1
CCC(CCO)c1ccc(Cl)c2nc3n(c12)CCCN3c1ccc(Cl)cc1Cl (centres unmarked) [Example 450, 3-[9-Chloro-1-(2,4-dichlorophenyl)-1,2,3,4-tetrahydropyrimido[1,2-a]benzimidazol-6-yl]pentan-1-ol] | 183 to 185 | < 1
CCC(OC(C)=O)c1ccc(Cl)c2nc3n(c12)CCCN3c1ccc(OC)nc1C (racemic) [Example 265, 1-[9-Chloro-1-(6-methoxy-2-methylpyridin-3-yl)-1,2,3,4-tetrahydropyrimido[1,2-a]benzimidazol-6-yl]propyl acetate] | 157 to 159 | < 1
CCNC(CC)c1ccc(Cl)c2nc3n(c12)CCCN3c1ccc(Cl)cc1Cl (centres unmarked) [Example 458, 1-[9-Chloro-1-(2,4-dichlorophenyl)-1,2,3,4-tetrahydropyrimido[1,2-a]benzimidazol-6-yl]-N-ethylpropan-1-amine] | 124 to 127 | < 1
CCC(OCC(F)(F)F)c1ccc(Cl)c2nc3n(c12)CCCN3c1ccc(Cl)cc1Cl (centres unmarked) [Example 454, 9-Chloro-1-(2,4-dichlorophenyl)-6-[1-(2,2,2-trifluoroethoxy)propyl]-1,2,3,4-tetrahydropyrimido[1,2-a]benzimidazole] | 146 to 148 | < 1
CCN(CC)c1cccc2nc3n(c12)CCCN=C3c1ccc(Cl)cc1Cl [Example 511, 1-(2,4-Dichlorophenyl)-N,N-diethyl-4,5-dihydro-3H-[1,4]diazepino[1,2-a]benzimidazol-7-amine] | 93 to 94 | < 1
CCC(COC)c1ccc(Cl)c2nc3n(c12)CCCN3c1ccc(Cl)cc1Cl (centres unmarked) [Example 149, 9-Chloro-1-(2,4-dichlorophenyl)-6-[1-(methoxymethyl)propyl]-1,2,3,4-tetrahydropyrimido[1,2-a]benzimidazole] | 130 to 131 | < 1
CCC(CC)c1ccc(Cl)c2nc3n(c12)CCCCN3c1ncc(C#N)cc1C [Example 339, 6-[10-Chloro-7-(1-ethylpropyl)-2,3,4,5-tetrahydro-1H-[1,3]diazepino[1,2-a]benzimidazol-1-yl]-5-methylpyridine-3-carbonitrile] | 213 | < 1
CCC(CC)c1cccc2nc3n(c12)CCCCN3c1ccc(OC)cc1OC [Example 37, 1-(2,4-Dimethoxyphenyl)-7-(1-ethylpropyl)-2,3,4,5-tetrahydro-1H-[1,3]diazepino[1,2-a]benzimidazole] | 145 to 148 | < 1
Cc1nc(OC(C)C)nc(C)c1N1CCCn2c1nc1c(Cl)ccc(C(OC(F)F)C(F)(F)F)c12 (centres unmarked) [Example 211, 9-Chloro-6-[1-(difluoromethoxy)-2,2,2-trifluoroethyl]-1-[4,6-dimethyl-2-(1-methylethoxy)pyrimidin-5-yl]-1,2,3,4-tetrahydropyrimido[1,2-a]benzimidazole] | 227 to 230 | < 1
COC(c1ccc(Cl)c2nc3n(c12)CCCN3c1ccc(Cl)cc1Cl)C(C)C (centres unmarked) [Example 235, 9-Chloro-1-(2,4-dichlorophenyl)-6-(1-methoxy-2-methylpropyl)-1,2,3,4-tetrahydropyrimido[1,2-a]benzimidazole] | 162 to 164 | < 1
CCC(CC)c1ccc(Cl)c2nc3n(c12)CCCCN3c1ncc(C(F)(F)F)cc1Cl [Example 63, 10-Chloro-1-[3-chloro-5-(trifluoromethyl)pyridin-2-yl]-7-(1-ethylpropyl)-2,3,4,5-tetrahydro-1H-[1,3]diazepino[1,2-a]benzimidazole] | 108 to 110 | < 1
CCC(O)(CC)c1ccc(Cl)c2nc3n(c12)CCCN3c1ccc(Cl)cc1C(F)(F)F [Example 128, 3-{9-Chloro-1-[4-chloro-2-(trifluoromethyl)phenyl]-1,2,3,4-tetrahydropyrimido[1,2-a]benzimidazol-6-yl}pentan-3-ol] | 178 to 180 | < 1
COc1ccc(C(O)(C2CC2)C2CC2)c2c1nc1n2CCCN1c1ccc(Cl)cc1Cl [Example 369, Dicyclopropyl[1-(2,4-dichlorophenyl)-9-methoxy-1,2,3,4-tetrahydropyrimido[1,2-a]benzimidazol-6-yl]methanol] | 219 to 220 | < 1
CCC(CC)c1ccc(Cl)c2nc3n(c12)CCCCN3c1ccc(C)cc1Br [Example 31, 1-(2-Bromo-4-methylphenyl)-10-chloro-7-(1-ethylpropyl)-2,3,4,5-tetrahydro-1H-[1,3]diazepino[1,2-a]benzimidazole] | 152 to 155 | < 1
Cc1cc(Cl)cc(Cl)c1N1CCCn2c1nc1c(Cl)ccc(C(O)(C3CC3)C3CC3)c12 [Example 138, [9-Chloro-1-(2,4-dichloro-6-methylphenyl)-1,2,3,4-tetrahydropyrimido[1,2-a]benzimidazol-6-yl](dicyclopropyl)methanol] | 210 to 212 | < 1
CCCC(O)(CCC)c1ccc(Cl)c2nc3n(c12)CCCN3c1ccc(Cl)cc1Cl [Example 233, 4-[9-Chloro-1-(2,4-dichlorophenyl)-1,2,3,4-tetrahydropyrimido[1,2-a]benzimidazol-6-yl]heptan-4-ol] | 133 to 135 | < 1
Clc1ccc(N2CCCn3c2nc2c(Cl)ccc(N(C4CC4)C4CC4)c23)c(Cl)c1 [Example 320, 9-Chloro-N,N-dicyclopropyl-1-(2,4-dichlorophenyl)-1,2,3,4-tetrahydropyrimido[1,2-a]benzimidazol-6-amine] | 211 to 213 | < 1
COCC(=O)OC(c1ccc(Cl)c2nc3n(c12)CCCN3c1ccc(Cl)cc1Cl)C1CC1 (centres unmarked) [Example 479] | 159 to 161 | < 1
Cc1nc(C2CC2)nc(C)c1N1CCCn2c1nc1c(Cl)ccc(C(OC(F)F)C(F)(F)F)c12 (centres unmarked) [Example 218, 9-Chloro-1-(2-cyclopropyl-4,6-dimethylpyrimidin-5-yl)-6-[1-(difluoromethoxy)-2,2,2-trifluoroethyl]-1,2,3,4-tetrahydropyrimido[1,2-a]benzimidazole] | 191 to 193 | < 1
FC(F)(F)C(OC1CC1)c1ccc(Cl)c2nc3n(c12)CCCN3c1ccc(Cl)cc1Cl (centres unmarked) [Example 308, 9-Chloro-6-[1-(cyclopropyloxy)-2,2,2-trifluoroethyl]-1-(2,4-dichlorophenyl)-1,2,3,4-tetrahydropyrimido[1,2-a]benzimidazole] | 197 to 200 | < 1
CCN(CC)c1cccc2nc3n(c12)CC(=O)CCN3c1ccc(Cl)cc1Cl [Example 71, 1-(2,4-Dichlorophenyl)-7-(diethylamino)-2,3-dihydro-1H-[1,3]diazepino[1,2-a]benzimidazol-4(5H)-one] | 169 to 170 | < 1
CCN(CC)c1cccc2nc3n(c12)C=CCCN3c1ccc(Cl)cc1Cl [Example 362, 1-(2,4-Dichlorophenyl)-N,N-diethyl-2,3-dihydro-1H-[1,3]diazepino[1,2-a]benzimidazol-7-amine] | 105 to 106 | < 1
CCOC(CC)c1ccc(Cl)c2nc3n(c12)CCCN3c1cnc(N(C)C)cc1C (centres unmarked) [Example 156, 5-[9-Chloro-6-(1-ethoxypropyl)-3,4-dihydropyrimido[1,2-a]benzimidazol-1(2H)-yl]-N,N,4-trimethylpyridin-2-amine] | 179 to 180 | < 1
CCC(CC)c1ccc(Cl)c2nc3n(c12)CCCCN3c1cnc(Br)c(C)c1 [Example 338, 1-(6-Bromo-5-methylpyridin-3-yl)-10-chloro-7-(1-ethylpropyl)-2,3,4,5-tetrahydro-1H-[1,3]diazepino[1,2-a]benzimidazole] | 137 to 140 | < 1
CCC(OC(=O)C1CC1)c1ccc(Cl)c2nc3n(c12)CCCN3c1ccc(OC)nc1C (centres unmarked) [Example 268, 1-[9-Chloro-1-(6-methoxy-2-methylpyridin-3-yl)-1,2,3,4-tetrahydropyrimido[1,2-a]benzimidazol-6-yl]propyl cyclopropanecarboxylate] | 149 to 151 | < 1
